Experimental data published in patent EP1247803A2, “Indolinone compounds suitable for modulation of protein kinases” (Sugen, Inc., priority 1996, dated 1998).

Columns and labels:
PDGF-R = PDGF-R (Homo sapiens, UniProt P09619); assay: PDGF-R ELISA; type: cell-based
Source text: A PDGF-R ELISA is described in International Patent Publication No. WO 96/40116, published December 19, 1996 by Tang et al.

FLK-1 receptor = target: T1, FLK-1 receptor (Mus musculus, UniProt P35918); assay: FLK-1 ELISA (kinase activity of the FLK-1 receptor in FLK-1/NIH3T3 cells, VEGF stimulated); type: cell-based; parameters: concentration or dose not given beside the values
T1 construct: expressed in transfected cells; host or cells: NIH3T3 C7#3
How it was run: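 NIH3T3 C7#3 cells expressing FLK-1 were seeded at 25.000 cells/well, serum-starved overnight in 0.1% FBS, then treated with compound for two hours at 37°C (final DMSO 0.5%) before VEGF stimulation. Receptor was captured on anti-rabbit IgG-coated ELISA plates bearing affinity-purified anti-FLK-1 antiserum.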

T1 sequence (P35918 20-1345): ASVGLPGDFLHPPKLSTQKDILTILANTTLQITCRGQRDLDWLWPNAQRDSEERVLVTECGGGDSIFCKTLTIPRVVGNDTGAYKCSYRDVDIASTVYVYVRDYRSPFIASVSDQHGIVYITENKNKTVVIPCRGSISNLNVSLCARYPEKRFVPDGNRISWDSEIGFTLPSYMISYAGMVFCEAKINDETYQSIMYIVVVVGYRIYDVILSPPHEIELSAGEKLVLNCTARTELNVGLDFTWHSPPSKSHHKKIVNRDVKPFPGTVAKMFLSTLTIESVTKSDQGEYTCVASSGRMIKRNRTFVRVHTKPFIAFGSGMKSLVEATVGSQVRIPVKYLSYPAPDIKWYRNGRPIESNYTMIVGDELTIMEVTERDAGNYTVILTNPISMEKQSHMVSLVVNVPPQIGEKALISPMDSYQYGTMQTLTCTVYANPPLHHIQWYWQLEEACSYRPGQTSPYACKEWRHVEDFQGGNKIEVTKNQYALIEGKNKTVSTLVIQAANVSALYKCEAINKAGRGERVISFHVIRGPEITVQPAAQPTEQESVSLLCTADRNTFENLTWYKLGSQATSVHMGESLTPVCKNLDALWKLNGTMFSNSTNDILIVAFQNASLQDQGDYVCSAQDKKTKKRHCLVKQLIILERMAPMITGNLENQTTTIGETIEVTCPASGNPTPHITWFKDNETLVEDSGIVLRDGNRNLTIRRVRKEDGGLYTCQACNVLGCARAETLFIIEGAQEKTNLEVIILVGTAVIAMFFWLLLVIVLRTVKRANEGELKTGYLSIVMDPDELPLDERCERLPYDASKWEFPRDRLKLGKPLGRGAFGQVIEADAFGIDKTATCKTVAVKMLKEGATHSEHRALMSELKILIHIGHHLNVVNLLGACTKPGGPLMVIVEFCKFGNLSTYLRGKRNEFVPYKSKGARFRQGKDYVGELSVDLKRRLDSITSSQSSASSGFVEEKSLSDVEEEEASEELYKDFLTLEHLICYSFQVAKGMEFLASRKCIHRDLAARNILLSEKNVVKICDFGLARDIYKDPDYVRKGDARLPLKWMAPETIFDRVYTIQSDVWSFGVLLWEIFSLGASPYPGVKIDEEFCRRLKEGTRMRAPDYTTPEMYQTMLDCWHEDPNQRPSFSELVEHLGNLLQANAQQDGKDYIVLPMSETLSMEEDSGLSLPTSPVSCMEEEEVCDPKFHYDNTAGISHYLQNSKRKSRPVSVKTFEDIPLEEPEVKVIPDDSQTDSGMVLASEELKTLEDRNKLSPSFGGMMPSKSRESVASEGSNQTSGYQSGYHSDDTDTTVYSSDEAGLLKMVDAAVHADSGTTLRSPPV
Sequence of PDGF-R (P09619 33-1106, species assumed): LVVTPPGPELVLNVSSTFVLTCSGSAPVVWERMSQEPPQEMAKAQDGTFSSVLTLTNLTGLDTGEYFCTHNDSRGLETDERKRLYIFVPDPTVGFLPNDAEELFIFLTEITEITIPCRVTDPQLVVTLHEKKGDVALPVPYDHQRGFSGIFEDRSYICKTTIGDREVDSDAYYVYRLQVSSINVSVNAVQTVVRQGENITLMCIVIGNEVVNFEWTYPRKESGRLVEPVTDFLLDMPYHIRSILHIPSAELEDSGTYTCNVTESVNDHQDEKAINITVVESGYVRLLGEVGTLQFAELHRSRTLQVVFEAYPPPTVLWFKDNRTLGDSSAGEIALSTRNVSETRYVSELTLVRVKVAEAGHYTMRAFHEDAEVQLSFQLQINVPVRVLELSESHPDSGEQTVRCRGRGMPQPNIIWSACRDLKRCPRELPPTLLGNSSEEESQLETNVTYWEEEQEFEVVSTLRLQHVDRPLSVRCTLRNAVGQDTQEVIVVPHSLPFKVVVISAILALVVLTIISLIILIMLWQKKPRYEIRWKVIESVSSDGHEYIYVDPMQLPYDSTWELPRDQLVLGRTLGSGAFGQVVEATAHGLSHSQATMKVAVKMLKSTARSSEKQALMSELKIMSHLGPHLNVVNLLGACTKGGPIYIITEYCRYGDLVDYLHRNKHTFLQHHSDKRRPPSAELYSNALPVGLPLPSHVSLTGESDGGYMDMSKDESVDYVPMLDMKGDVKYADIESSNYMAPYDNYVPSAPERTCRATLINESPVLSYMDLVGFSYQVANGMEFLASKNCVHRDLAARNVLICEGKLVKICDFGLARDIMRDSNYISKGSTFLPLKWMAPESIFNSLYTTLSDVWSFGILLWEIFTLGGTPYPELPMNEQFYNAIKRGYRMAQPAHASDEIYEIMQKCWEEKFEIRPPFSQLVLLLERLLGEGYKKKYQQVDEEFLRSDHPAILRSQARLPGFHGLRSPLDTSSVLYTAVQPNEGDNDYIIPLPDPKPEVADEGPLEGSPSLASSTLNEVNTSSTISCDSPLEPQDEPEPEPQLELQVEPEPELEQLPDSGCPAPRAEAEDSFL

## CNS(=O)(=O)c1ccc2c(c1)C(=Cc1coc3cc(C)c(C)cc3c1=O)C(=O)N2 [10731/D03]
PDGF-R
  PDGF Kinase %Inhibition: 28.4%
FLK-1 receptor
  Fik Kinase %Inhibition: 17.3%

## O=C1Nc2c(Br)cc(Br)cc2C1=Cc1c[nH]c(=O)[nH]c1=O [10731/A08]
PDGF-R
  PDGF Kinase %Inhibition: -2.5%
FLK-1 receptor
  Fik Kinase %Inhibition: -13.8%

## Cc1c(Br)ccc2c1C(=Cc1c[nH]c(=O)[nH]c1=O)C(=O)N2 [10731/C08]
PDGF-R
  PDGF Kinase %Inhibition: -3.0%
FLK-1 receptor
  Fik Kinase %Inhibition: 10.2%

## COC1CC(C=C2C(=O)Nc3ccc(S(=O)(=O)N4CCOCC4)cc32)C(OC)O1 (centres unmarked) [10730/F10]
PDGF-R
  PDGF Kinase %Inhibition: 1.9%
FLK-1 receptor
  Fik Kinase %Inhibition: 13.4%

## Cc1c(Br)ccc2c1C(=Cc1coc3ccc(C(C)C)cc3c1=O)C(=O)N2 [10731/C05]
PDGF-R
  PDGF Kinase %Inhibition: 22.7%
FLK-1 receptor
  Fik Kinase %Inhibition: 14.9%

## Cc1cc(C=C2C(=O)Nc3ccc(CCCl)cc32)oc1C [10730/G11]
PDGF-R
  PDGF Kinase %Inhibition: -0.3%
FLK-1 receptor
  Fik Kinase %Inhibition: -1.4%

## Cc1ccc2occ(C=C3C(=O)Nc4ccc(Br)c(C)c43)c(=O)c2c1 [10731/C06]
PDGF-R
  PDGF Kinase %Inhibition: 7.0%
FLK-1 receptor
  Fik Kinase %Inhibition: 13.8%

## Cc1ccc2occ(C=C3C(=O)Nc4ccc(I)cc43)c(=O)c2c1 [10731/B06]
PDGF-R
  PDGF Kinase %Inhibition: 5.6%
FLK-1 receptor
  Fik Kinase %Inhibition: 6.2%

## CCn1c2ccccc2c2cc(C=C3C(=O)Nc4c(Br)cc(Br)cc43)ccc21 [10731/A02]
PDGF-R
  PDGF Kinase %Inhibition: -3.9%
FLK-1 receptor
  Fik Kinase %Inhibition: 2.7%

## CCOC(=O)c1cc(C=C2C(=O)Nc3ccc(Br)c(C)c32)oc1C [10718/C06]
FLK-1 receptor
  Fik Kinase %Inhibition: 16.8%

## Cc1cc2occ(C=C3C(=O)Nc4ccc(Br)c(C)c43)c(=O)c2cc1C [10731/C03]
PDGF-R
  PDGF Kinase %Inhibition: 11.3%
FLK-1 receptor
  Fik Kinase %Inhibition: 4.5%

## COc1cc(C=C2C(=O)Nc3ccc(CCCl)cc32)cc(OC)c1OC [10730/G04]
PDGF-R
  PDGF Kinase %Inhibition: 21.6%
FLK-1 receptor
  Fik Kinase %Inhibition: 7.4%

## CN1C(=O)C(=C2C(=O)Nc3c(Br)cc(Br)cc32)c2ccccc21 [10731/A10]
PDGF-R
  PDGF Kinase %Inhibition: -3.5%
FLK-1 receptor
  Fik Kinase %Inhibition: -5.3%

## Cc1c(Br)ccc2c1C(=Cc1ccc(Cl)c([N+](=O)[O-])c1)C(=O)N2 [10718/C08]
FLK-1 receptor
  Fik Kinase %Inhibition: 19.6%

## COc1ccc2[nH]cc(C=C3C(=O)Nc4ccc(I)cc43)c2c1 [10731/B09]
PDGF-R
  PDGF Kinase %Inhibition: 0.3%
FLK-1 receptor
  Fik Kinase %Inhibition: -0.5%

## C=C(C)C1CC=C(C=C2C(=O)Nc3ccc(Br)c(C)c32)CC1 (centres unmarked) [10731/C04]
PDGF-R
  PDGF Kinase %Inhibition: 15.1%
FLK-1 receptor
  Fik Kinase %Inhibition: 10.5%

## C=C(C)C1CC=C(C=C2C(=O)Nc3ccc(I)cc32)CC1 (centres unmarked) [10731/B04]
PDGF-R
  PDGF Kinase %Inhibition: 0.3%
FLK-1 receptor
  Fik Kinase %Inhibition: 12.0%

## COc1ccc2[nH]cc(C=C3C(=O)Nc4ccc(Br)c(C)c43)c2c1 [10731/C09]
PDGF-R
  PDGF Kinase %Inhibition: -6.3%
FLK-1 receptor
  Fik Kinase %Inhibition: 15.1%

## CC(=O)n1cc(C=C2C(=O)Nc3ccc(CCCl)cc32)c2ccccc21 [10730/G05]
PDGF-R
  PDGF Kinase %Inhibition: 65.0%
FLK-1 receptor
  Fik Kinase %Inhibition: 22.3%

## O=C1Nc2c(Br)cc(Br)cc2C1=Cc1ccc[nH]1 [10717/A09]
FLK-1 receptor
  Fik Kinase %Inhibition: -3.9%

## Cc1ccc2occ(C=C3C(=O)Nc4c(Br)cc(Br)cc43)c(=O)c2c1 [10731/A06]
PDGF-R
  PDGF Kinase %Inhibition: 1.3%
FLK-1 receptor
  Fik Kinase %Inhibition: -5.5%

## COc1ccc(C=C2C(=O)Nc3ccc(CCCl)cc32)c(OC)c1OC [10730/G02]
PDGF-R
  PDGF Kinase %Inhibition: 18.1%
FLK-1 receptor
  Fik Kinase %Inhibition: 23.3%

## CCn1c2ccccc2c2cc(C=C3C(=O)Nc4ccc(I)cc43)ccc21 [10731/B02]
PDGF-R
  PDGF Kinase %Inhibition: 13.2%
FLK-1 receptor
  Fik Kinase %Inhibition: 6.5%

## C=C(C)C1CC=C(C=C2C(=O)Nc3c(Br)cc(Br)cc32)CC1 (centres unmarked) [10731/A04]
PDGF-R
  PDGF Kinase %Inhibition: 5.1%
FLK-1 receptor
  Fik Kinase %Inhibition: 5.0%

## Cc1c(O)ccc(C=C2C(=O)Nc3ccc(Br)c(C)c32)c1O [10718/C09]
FLK-1 receptor
  Fik Kinase %Inhibition: 5.3%

## CN1C(=O)C(=C2C(=O)Nc3ccc(I)cc32)c2ccccc21 [10731/B10]
PDGF-R
  PDGF Kinase %Inhibition: 4.6%
FLK-1 receptor
  Fik Kinase %Inhibition: 1.3%

## COC1CC(C=C2C(=O)Nc3ccc(CCCl)cc32)C(OC)O1 (centres unmarked) [10730/G10]
PDGF-R
  PDGF Kinase %Inhibition: 22.1%
FLK-1 receptor
  Fik Kinase %Inhibition: 11.3%

## O=C1Nc2ccc(S(=O)(=O)N3CCOCC3)cc2C1=Cc1coc2c(Br)cc(Br)cc2c1=O [10730/F09]
PDGF-R
  PDGF Kinase %Inhibition: 13.3%
FLK-1 receptor
  Fik Kinase %Inhibition: 14.4%

## O=C1Nc2ccc(CCCl)cc2C1=Cc1ccc(-c2ccccc2Cl)o1 [10730/G07]
PDGF-R
  PDGF Kinase %Inhibition: 19.9%
FLK-1 receptor
  Fik Kinase %Inhibition: 8.3%

## O=C1Nc2ccc(I)cc2C1=Cc1c[nH]c(=O)[nH]c1=O [10731/B08]
PDGF-R
  PDGF Kinase %Inhibition: -23.4%
FLK-1 receptor
  Fik Kinase %Inhibition: 6.2%

## CC(C)c1ccc2occ(C=C3C(=O)Nc4c(Br)cc(Br)cc43)c(=O)c2c1 [10731/A05]
PDGF-R
  PDGF Kinase %Inhibition: 14.1%
FLK-1 receptor
  Fik Kinase %Inhibition: -6.5%

## CCn1c2ccccc2c2cc(C=C3C(=O)Nc4ccc(Br)c(C)c43)ccc21 [10731/C02]
PDGF-R
  PDGF Kinase %Inhibition: -2.5%
FLK-1 receptor
  Fik Kinase %Inhibition: 3.1%

## O=C1Nc2ccc(I)cc2C1=Cc1coc2ccc([N+](=O)[O-])cc2c1=O [10731/B07]
PDGF-R
  PDGF Kinase %Inhibition: 6.0%
FLK-1 receptor
  Fik Kinase %Inhibition: 11.7%

## Cc1c(Br)ccc2c1C(=C1C(=O)N(C)c3ccccc31)C(=O)N2 [10731/C10]
PDGF-R
  PDGF Kinase %Inhibition: 6.5%
FLK-1 receptor
  Fik Kinase %Inhibition: 19.7%

## COc1ccc2[nH]cc(C=C3C(=O)Nc4c(Br)cc(Br)cc43)c2c1 [10731/A09]
PDGF-R
  PDGF Kinase %Inhibition: -14.4%
FLK-1 receptor
  Fik Kinase %Inhibition: -2.7%

## Cc1c(Br)ccc2c1C(=Cc1coc3ccc([N+](=O)[O-])cc3c1=O)C(=O)N2 [10731/C07]
PDGF-R
  PDGF Kinase %Inhibition: 31.3%
FLK-1 receptor
  Fik Kinase %Inhibition: 70.4%

## CCn1c2ccccc2c2cc(C=C3C(=O)Nc4ccc(S(=O)(=O)NC)cc43)ccc21 [10731/D02]
PDGF-R
  PDGF Kinase %Inhibition: 17.9%
FLK-1 receptor
  Fik Kinase %Inhibition: -8.4%

## Cc1cc(C=C2C(=O)Nc3ccc(S(=O)(=O)N4CCOCC4)cc32)oc1C [10730/F11]
PDGF-R
  PDGF Kinase %Inhibition: 4.5%
FLK-1 receptor
  Fik Kinase %Inhibition: -1.3%

## COC(=O)c1[nH]c(C)c(C=C2C(=O)Nc3ccc(Br)c(C)c32)c1C(=O)OC [10718/C07]
FLK-1 receptor
  Fik Kinase %Inhibition: 6.3%

## O=C1Nc2ccc(CCCl)cc2C1=Cc1cc2ccccc2nc1Cl [10730/G08]
PDGF-R
  PDGF Kinase %Inhibition: 20.3%
FLK-1 receptor
  Fik Kinase %Inhibition: 23.3%

## Cc1cc2occ(C=C3C(=O)Nc4c(Br)cc(Br)cc43)c(=O)c2cc1C [10731/A03]
PDGF-R
  PDGF Kinase %Inhibition: 7.5%
FLK-1 receptor
  Fik Kinase %Inhibition: 2.5%

## COc1cc(OC)c(OC)cc1C=C1C(=O)Nc2ccc(CCCl)cc21 [10730/G03]
PDGF-R
  PDGF Kinase %Inhibition: 44.0%
FLK-1 receptor
  Fik Kinase %Inhibition: 15.2%

## CC(C)c1ccc2occ(C=C3C(=O)Nc4ccc(I)cc43)c(=O)c2c1 [10731/B05]
PDGF-R
  PDGF Kinase %Inhibition: 17.9%
FLK-1 receptor
  Fik Kinase %Inhibition: 3.8%

## O=C1Nc2c(Br)cc(Br)cc2C1=Cc1coc2ccc([N+](=O)[O-])cc2c1=O [10731/A07]
PDGF-R
  PDGF Kinase %Inhibition: 4.6%
FLK-1 receptor
  Fik Kinase %Inhibition: -4.3%

## Cc1cc2occ(C=C3C(=O)Nc4ccc(I)cc43)c(=O)c2cc1C [10731/B03]
PDGF-R
  PDGF Kinase %Inhibition: 9.9%
FLK-1 receptor
  Fik Kinase %Inhibition: 1.9%

## CCOC(=O)CCc1c(C(=O)OCC)[nH]c(C=C2C(=O)Nc3ccc(Br)c(C)c32)c1CC(=O)OCC [10718/C05]
FLK-1 receptor
  Fik Kinase %Inhibition: 20.5%
